Our source for the Emax and EC50 values is patent US20250340551A1, “SMALL MOLECULE MODULATORS OF STAT6” (Gilead Sciences, Inc., priority 2024, published 2025).

The first test concerns Eotaxin-3 (CCL26) release in human whole blood stimulated with IL-4. In words: Human whole blood eotaxin-3 assay (IL-4 stimulated, Eotaxin-3 release). It is filed as cell-based. To be noted: Homo sapiens, 48 h. As to the method:
This was a human whole blood assay using recombinant human Interleukin 4 to stimulate the blood and measuring the ability of the test compounds to inhibit eotaxin-3 release. The biological activities of the test compounds have been tested in human whole blood stimulated with IL-4 measuring Eotaxin-3 release. The test compounds were added to 384 well clear flat-bottom plate in a 4-fold serial dilution in triplicates using a liquid handler. Human whole blood stabilized in lithium-heparin tubes was added in a volume of 65 μL per well, resulting in a final DMSO concentration of 0.5%. The plate is incubated for 2 h at 37° C. under 5% CO2/95% air. Subsequently, 5 μL of recombinant human IL-4 (R&D Systems, cat #204-ILB) was added to the wells to a final concentration of 400 pM. The plate was incubated for 48 h at 37° C. under 5% CO2/95% air. The plate was spun down for 10 minutes at 500×g and 20 μL supernatant was harvested and transferred to a 384 well v-bottom plate using a liquid handler and stored at −20° C. until further analysis. 10 μL supernatant was used to measure the level of Eotaxin-3 (CCL26) using Human Eotaxin-3 MSD kit from Mesocsale (Cat #K251UEK-4). The assay was performed according to the manufacture instructions.
The data from the human whole blood eotaxin-3 assay is shown below for Examples 1u2, 1x1, 1af26, and 1af36 (where the effect in % is plotted against the test concentration in M on a log-scale).
The compound `[2H]C([2H])([2H])N(C(=O)c1ccc(C2CCN([C@@H](C)c3cc4c(-c5cnc(N)cc5C#N)ccnc4n3C)CC2)cc1)C([2H])([2H])[2H]` [Example 1af70, (S)-4-(1-(1-(4-(6-amino-4-cyanopyridin-3-yl)-1-methyl-1H-pyrrolo[2,3-b]pyridin-2-yl)ethyl)piperidin-4-yl)-N,N-bis(methyl-d3)benzamide] gave an Emax of 30 to 40%. On the same count and under the same terms, then `[2H]C([2H])([2H])N(C(=O)c1cnc(C2=CCN(Cc3cc4c(-c5ccc(N)nc5)ccnc4n3C)CC2)cn1)C([2H])([2H])[2H]` [Example 1af79, 5-(1-((4-(6-Aminopyridin-3-yl)-1-methyl-1H-pyrrolo[2,3-b]pyridin-2-yl)methyl)-1,2,3,6-tetrahydropyridin-4-yl)-N,N-bis(methyl-d3)pyrazine-2-carboxamide], with 20 to 30%.

The same test, now with this note: Homo sapiens, Hec50, 48 h.
Turning to `[2H]C([2H])([2H])N(C(=O)c1ccc(C2=CCN([C@@H](C)c3cc4c(-c5ncc(N)cc5F)ccnc4n3C)CC2)cc1)C([2H])([2H])[2H]` [Example 1af51, (S)-4-(1-(1-(4-(5-Amino-3-fluoropyridin-2-yl)-1-methyl-1H-pyrrolo[2,3-b]pyridin-2-yl)ethyl)-1,2,3,6-tetrahydropyridin-4-yl)-N,N-bis(methyl-d3)benzamide], the EC50 came to 1670 nM. The same measure, in the same setting: the same measure for `[2H]C([2H])([2H])N(C(=O)c1ccc(C2=CCN([C@@H](C)c3cc4c(-c5ncc(N)cc5C)ccnc4n3C)CC2)cc1)C([2H])([2H])[2H]` [Example 1af53, (S)-4-(1-(1-(4-(5-Amino-3-methylpyridin-2-yl)-1-methyl-1H-pyrrolo[2,3-b]pyridin-2-yl)ethyl)-1,2,3,6-tetrahydropyridin-4-yl)-N,N-bis(methyl-d3)benzamide]: 765 nM. Still for that read-out and setting: then `[2H]C([2H])([2H])N(C(=O)c1ccc(C2=CCN([C@@H](C)c3cc4c(-c5ccc(N)c(F)n5)ccnc4n3C)CC2)cc1)C([2H])([2H])[2H]` [Example 1af54, (S)-4-(1-(1-(4-(5-Amino-6-fluoropyridin-2-yl)-1-methyl-1H-pyrrolo[2,3-b]pyridin-2-yl)ethyl)-1,2,3,6-tetrahydropyridin-4-yl)-N,N-bis(methyl-d3)benzamide], with 534 nM. In turn, `[2H]C([2H])([2H])N(C(=O)c1ccc(C2=CCN([C@@H](C)c3cc4c(-c5cnc(N)cc5F)ccnc4n3C)CC2)cc1)C([2H])([2H])[2H]` [Example 1af55, (S)-4-(1-(1-(4-(6-Amino-4-fluoropyridin-3-yl)-1-methyl-1H-pyrrolo[2,3-b]pyridin-2-yl)ethyl)-1,2,3,6-tetrahydropyridin-4-yl)-N,N-bis(methyl-d3)benzamide] returned an EC50 of 426 nM. This EC50 and that of the compound before are within 1.5-fold of each other. The same measure, in the same setting: then `[2H]C([2H])([2H])N(C(=O)c1ccc(C2=CCN([C@@H](C)c3cc4c(-c5cnc(N)c(F)c5)ccnc4n3C)CC2)cc1)C([2H])([2H])[2H]` [Example 1af56, (S)-4-(1-(1-(4-(6-Amino-5-fluoropyridin-3-yl)-1-methyl-1H-pyrrolo[2,3-b]pyridin-2-yl)ethyl)-1,2,3,6-tetrahydropyridin-4-yl)-N,N-bis(methyl-d3)benzamide], with 726 nM; and `[2H]C([2H])([2H])N(C(=O)c1ccc(C2=CCN([C@@H](C)c3cc4c(-c5ncc(N)cc5C(F)(F)F)ccnc4n3C)CC2)cc1)C([2H])([2H])[2H]` [Example 1af57, (S)-4-(1-(1-(4-(5-Amino-3-(trifluoromethyl)pyridin-2-yl)-1-methyl-1H-pyrrolo[2,3-b]pyridin-2-yl)ethyl)-1,2,3,6-tetrahydropyridin-4-yl)-N,N-bis(methyl-d3)benzamide], with 17900 nM; and `[2H]C([2H])([2H])N(C(=O)c1ccc(C2=CCN([C@@H](C)c3cc4c(-c5cnc(N)c(C)c5)ccnc4n3C)CC2)cc1)C([2H])([2H])[2H]` [Example 1af58, (S)-4-(1-(1-(4-(6-Amino-5-methylpyridin-3-yl)-1-methyl-1H-pyrrolo[2,3-b]pyridin-2-yl)ethyl)-1,2,3,6-tetrahydropyridin-4-yl)-N,N-bis(methyl-d3)benzamide], with 638 nM. Still for that read-out and setting: then `[2H]C([2H])([2H])N(C(=O)c1ccc(C2=CCN([C@@H](C)c3cc4c(-c5ccc(N)nn5)ccnc4n3C)CC2)cc1)C([2H])([2H])[2H]` [Example 1af59, (S)-4-(1-(1-(4-(6-aminopyridazin-3-yl)-1-methyl-1H-pyrrolo[2,3-b]pyridin-2-yl)ethyl)-1,2,3,6-tetrahydropyridin-4-yl)-N,N-bis(methyl-d3)benzamide], with 260 nM; and `[2H]C([2H])([2H])N(C(=O)c1ccc(C2=CCN([C@@H](C)c3cc4c(-c5ccc(NC)nn5)ccnc4n3C)CC2)cc1)C([2H])([2H])[2H]` [Example 1af60, (S)—N,N-bis(methyl-d3)-4-(1-(1-(1-methyl-4-(6-(methylamino)pyridazin-3-yl)-1H-pyrrolo[2,3-b]pyridin-2-yl)ethyl)-1,2,3,6-tetrahydropyridin-4-yl)benzamide], with 1290 nM. Same read-out and setting: then `[2H]C([2H])([2H])N(C(=O)c1ccc(C2CCN([C@@H](C)c3cc4c(-c5cnc(N)nn5)ccnc4n3C)CC2)cc1)C([2H])([2H])[2H]` [Example 1af64, (S)-4-(1-(1-(4-(3-amino-1,2,4-triazin-6-yl)-1-methyl-1H-pyrrolo[2,3-b]pyridin-2-yl)ethyl)piperidin-4-yl)-N,N-bis(methyl-d3)benzamide], with 3190 nM; and `[2H]C([2H])([2H])N(C(=O)c1ccc(C2CCN([C@@H](C)c3cc4c(-c5ccc(N)c(C)n5)ccnc4n3C)CC2)cc1)C([2H])([2H])[2H]` [Example 1af66, (S)-4-(1-(1-(4-(5-amino-6-methylpyridin-2-yl)-1-methyl-1H-pyrrolo[2,3-b]pyridin-2-yl)ethyl)piperidin-4-yl)-N,N-bis(methyl-d3)benzamide], with 611 nM; and `[2H]C([2H])([2H])N(C(=O)c1ccc(C2CCN([C@@H](C)c3cc4c(-c5ccc(N)nc5OC)ccnc4n3C)CC2)cc1)C([2H])([2H])[2H]` [Example 1af67, (S)-4-(1-(1-(4-(6-amino-2-methoxypyridin-3-yl)-1-methyl-1H-pyrrolo[2,3-b]pyridin-2-yl)ethyl)piperidin-4-yl)-N,N-bis(methyl-d3)benzamide], with 97 nM. For `[2H]C([2H])([2H])N(C(=O)c1ccc(C2CCN([C@@H](C)c3cc4c(-c5ncc(N)cc5OC)ccnc4n3C)CC2)cc1)C([2H])([2H])[2H]` [Example 1af68, (S)-4-(1-(1-(4-(5-amino-3-methoxypyridin-2-yl)-1-methyl-1H-pyrrolo[2,3-b]pyridin-2-yl)ethyl)piperidin-4-yl)-N,N-bis(methyl-d3)benzamide], a half-maximal response (EC50) required 1090 nM. Same read-out and setting: then `[2H]C([2H])([2H])N(C(=O)c1ccc(C2CCN([C@@H](C)c3cc4c(-c5ccc(NCCO)nc5)ccnc4n3C)CC2)cc1)C([2H])([2H])[2H]` [Example 1af69, (S)-4-(1-(1-(4-(6-((2-hydroxyethyl)amino)pyridin-3-yl)-1-methyl-1H-pyrrolo[2,3-b]pyridin-2-yl)ethyl)piperidin-4-yl)-N,N-bis(methyl-d3)benzamide], with 262 nM; and `[2H]C([2H])([2H])N(C(=O)c1cnc(C2=CCN(Cc3cc4c(-c5ccc(N)nc5)ccnc4n3C)CC2)nc1)C([2H])([2H])[2H]` [Example 1af73, 2-(1-((4-(6-Aminopyridin-3-yl)-1-methyl-1H-pyrrolo[2,3-b]pyridin-2-yl)methyl)-1,2,3,6-tetrahydropyridin-4-yl)-N,N-bis(methyl-d3)pyrimidine-5-carboxamide], with 46.3 nM; and `CN(C)C(=O)c1cc(F)c(C2=CCN(Cc3cc4c(-c5ccc(N)nn5)ccnc4n3C)CC2)c(Cl)c1` [Example 1af75, 4-(1-((4-(6-Aminopyridazin-3-yl)-1-methyl-1H-pyrrolo[2,3-b]pyridin-2-yl)methyl)-1,2,3,6-tetrahydropyridin-4-yl)-3-chloro-5-fluoro-N,N-dimethylbenzamide], with 159 nM.

As for `Cc1cc(C(=O)N(C)C)ccc1C1=CCN(Cc2cc3c(-c4ccc(N)nn4)ccnc3n2C)CC1` [Example 1af76, 4-(1-((4-(6-Aminopyridazin-3-yl)-1-methyl-1H-pyrrolo[2,3-b]pyridin-2-yl)methyl)-1,2,3,6-tetrahydropyridin-4-yl)-N,N,3-trimethylbenzamide], the EC50 amounted to 308 nM.

Take `CN(C)C(=O)c1ccc(C2=CCN(Cc3cc4c(-c5ccc(N)nn5)ccnc4n3C)CC2)c(Cl)c1` [Example 1af77, 4-(1-((4-(6-Aminopyridazin-3-yl)-1-methyl-1H-pyrrolo[2,3-b]pyridin-2-yl)methyl)-1,2,3,6-tetrahydropyridin-4-yl)-3-chloro-N,N-dimethylbenzamide]: the response was half-maximal at 871 nM (EC50).

`CN(C)C(=O)c1ccc(C2=CCN(Cc3cc4c(-c5ccc(N)nn5)ccnc4n3C)CC2)nc1` [Example 1af78, 1′-((4-(6-Aminopyridazin-3-yl)-1-methyl-1H-pyrrolo[2,3-b]pyridin-2-yl)methyl)-N,N-dimethyl-1′,2′,3′,6′-tetrahydro-[2,4′-bipyridine]-5-carboxamide] yielded an EC50 of 851 nM.

On to `Cc1cc(C(=O)N(C)C)cc(F)c1C1=CCN([C@@H](C)c2cc3c(-c4ccc(N)nn4)ccnc3n2C)CC1` [Example 1af80, (S)-4-(1-(1-(4-(6-aminopyridazin-3-yl)-1-methyl-1H-pyrrolo[2,3-b]pyridin-2-yl)ethyl)-1,2,3,6-tetrahydropyridin-4-yl)-3-fluoro-N,N,5-trimethylbenzamide], for which a half-maximal effect (EC50) was put at 11.4 nM.

As a reminder, the Emax is the maximal effect, on the per cent scale that the assay sets. Broadly, the EC50 is the concentration needed to bring the measured effect to its halfway point. A lower EC50 goes with higher potency in that assay.
